# Measurements published in publication PMC9325934, “Preliminary mechanistic insights of a brain-penetrant microtubule imaging PET ligand in a tau-knockout mouse model” (EJNMMI Research, 2022).
# Counter-ions that a name gives are not always drawn.
# What was measured:
# [1] = system: stabilized/bound and destabilized/free tubulins of SH-SY5Y cells; experiment: Cytoskeleton kit-based tubulin assay with [11C]MPC-6827 (free vs bound tubulin fractions); format: cell-based, human; conditions: for decrease of [11C]MPC-6827 radioactivity in bound tubulin fractions / decrease of [11C]MPC-6827 radioactivity in free tubulin fractions / increase of [11C]MPC-6827 radioactivity in bound fractions / increase of [11C]MPC-6827 radioactivity in free tubulin fractions: 1.0 µM agent 3 h, vs untreated fractions
# Method: To further investigate the tubulin selectivity of [^11C]MPC-6827 in SH-SY5Y cells, tubulin assay was performed using the commercially available kit-based assay (Cytoskeleton Inc, USA). Briefly, SH-SY5Y cells (7 × 10^6 cells/well) were pretreated with 1.0 µM of same MT stabilizing (EpoD, paclitaxel) and destabilizing agents (mertasine, vinblastine) for 3 h (n = 3/group). […] Samples were loaded on to ultra-centrifuge following the kit-based assay parameters to separate stabilized/bound and destabilized/free tubulins. Stabilized tubulins from low-speed centrifugation (1000×g for 5 min at 37 °C) and destabilized tubulins from high speed centrifugation (100,000×g for 20 min at 37 °C) were collected separately and their associated radioactivity was measured using a γ counter (Perkin Elmer).
# SH-SY5Y cells = experiment: In vitro [11C]MPC-6827 cell uptake assay with MT stabilizing/destabilizing agents and self-blocking
# Method: Cell-binding assays in vitro were performed in SH-SY5Y cells with [^11C]MPC-6827 following our published protocols [20, 21]. […] They (0.5 × 10^6 cells/well) were treated with 1.0 µM of (a) stabilizing agents that increase MT polymerizations (paclitaxel, EpoD) [1, 25] or destabilizing agents increasing free tubulin content (vinblastine, mertasine) [26, 27] and 3 h later, [^11C]MPC-6827 (0.074 MBq/well) was added and incubated for 30 min at RT (n = 6/group). […] All the cells were washed with PBS and lysed with 1 N NaOH. Finally, the lysate from each well was γ-counted (PerkinElmer, Waltham, MA, USA) and counts-per-minute (cpm) values were normalized to the amount of radioactivity added to each well. Protein concentration was estimated in a subgroup of cells (n = 3) using the established Pierce BCA Protein Assay Kit from ThermoFisher [28, 29]. Cpm values were then matched to protein concentration per well, and the data expressed as %ID/mg of protein in each well.
# [2] = [11C]MPC-6827 brain microPET/CT at baseline and after EpoD treatment; format: in vivo; conditions: female Balb/C mice, EpoD 3.0 mg/kg intraperitoneal, 3 days acute treatment
# Method: To validate the in vitro MT-stabilization cell uptake results, normal Balb/C mice (n = 6, 6 mo old) were treated with epothilone D (EpoD), a brain-penetrant, MT-stabilizing drug commonly used in tauopathies. [^11C]MPC-6827 brain PET/CT imaging was performed at baseline and after 3 days of acute treatment of EpoD treatment (3.0 mg/kg intraperitoneal injection). Whole-brain SUVmax was calculated and compared between the baseline and post-drug treatment scans.
# β-tubulin = system: β-tubulin; design: method as in PMID 17575155; conditions: high-affinity, selective β-tubulin binding MT agent; cited from earlier work
# [3] = design: method as in earlier work; conditions: mice, rats, and dogs; cited from earlier work
# [4] = In vitro autoradiography of [11C]MPC-6827 on brain sections; format: binding, mice
# Method: Autoradiography studies in vitro were performed on postmortem frozen brain sections from tau KO and control mice (n = 6/group) following published protocols. Briefly, the sagittal sections were mount on a glass slides (Super frost plus slides, Fisher Scientific, Waltham, MA), air-dried for 30 min and incubated in PBS (pH 7.4) for 10 min to remove any endogenous binding. Additionally, a sub-section of tau KO brains (n = 4) were self-blocked with non-radioactive MPC-6827 (10 µM) 1 h prior to radiotracer treatment. The slides were air-dried and ~ 0.5 MBq of [^11C]MPC-6827 in PBS was added to each slide and incubated for 30 min. The slides were then washed with PBS (3×) and water (1×) at 4 °C and quickly air-dried. Slides containing the brain tissues were exposed to radioluminographic imaging cassette BAS IP SR 2025 (GE Healthcare) for 12 h at − 20 °C and scanned with a GE Amersham Typhoon scanner (25 µm pixel size). Autoradiographs were analyzed using ImageQuant TL 8.2 and ROI were manually drawn (see Additional file 1: 3), and specific binding in each ROI was calculated and expressed as photo-stimulated luminescence signals per square millimeter (PSL/mm^2).
# [5] = Post-PET ex vivo biodistribution of [11C]MPC-6827 in tau KO and WT mice
# Method: Post-PET radiotracer tissue biodistribution studies were performed with [^11C]MPC-6827 in the KO and WT mice (n = 4/group). After dynamic brain imaging from 0 to 60 min, mice were euthanized, and samples of brain, blood, heart, lung, liver, spleen, pancreas, kidney, and muscle were harvested, weighed, and γ-counted using a Wallac Gamma Counter (PerkinElmer) with a standard dilution of the injectate. […]
# [6] = [11C]MPC-6827 microPET/CT brain imaging in tau KO and WT mice; format: in vivo
# Method: Small animal microPET/CT imaging was performed in anesthetized tau-KO and WT mice (n = 8/group) at 6 months of age. All mice received a bolus injection of [^11C]MPC-6827 (18.1 ± 0.01 MBq) via the tail vein. For the microPET/CT scans, the head/brain area was centered in the field of view, and the list-mode data from the emission scans were reframed into a 0-60 min dynamic binning sequence. Time-activity curves (TACs) were obtained, and radioactive uptake was expressed as standardized uptake values (SUVs) using the PMOD analysis software. Regions of interest (ROIs) were drawn for the whole brain and commonly AD-affected regions including cortex, striatum, hippocampus, and cerebellum, using Π-pmod Atlas software.
# [7] = 1.0 µM agent for 3 h, then tracer 30 min at RT, vs untreated cells
smiles,measurement,setting,value
CC(=O)O[C@H]1C(=O)[C@@]2(C)[C@H]([C@H](OC(=O)c3ccccc3)[C@]3(O)C[C@H](OC(=O)[C@H](O)[C@@H](NC(=O)c4ccccc4)c4ccccc4)C(C)=C1C3(C)C)[C@]1(OC(C)=O)CO[C@@H]1C[C@@H]2O [paclitaxel],decrease of [11C]MPC-6827 radioactivity in bound tubulin fractions,[1],~ 60 (± 2) %
same,decrease of [11C]MPC-6827 radioactivity in free tubulin fractions,[1],~ 36.8 (± 3) %
"C/C1=C/C[C@@H](/C(C)=C/c2csc(C)n2)OC(=O)C[C@H](O)C(C)(C)C(=O)[C@H](C)[C@@H](O)[C@@H](C)CCC1 [EpoD, Epothilone d]",decrease of [11C]MPC-6827 radioactive uptake,SH-SY5Y cells; [7],~ 44 (± 2) %
same,decrease of [11C]MPC-6827 radioactivity in bound tubulin fractions,[1],~ 62 (± 6) %
same,decrease of [11C]MPC-6827 radioactivity in free tubulin fractions,[1],~ 44 (± 1) %
same,lower [11C]MPC-6827 brain uptake (whole-brain SUVmax) with EpoD treatment compared to baseline,[2],~ 23 (± 1) %
CC[C@]1(O)C[C@@H]2CN(CCc3c([nH]c4ccccc34)[C@@](C(=O)OC)(c3cc4c(cc3OC)N(C)[C@H]3[C@@](O)(C(=O)OC)[C@H](OC(C)=O)[C@]5(CC)C=CCN6CC[C@]43[C@@H]65)C2)C1 [vinblastine],increase of [11C]MPC-6827 radioactive uptake,SH-SY5Y cells; [7],~ 78 (± 2) %
same,increase of [11C]MPC-6827 radioactivity in bound fractions,[1],84 (± 4) %
same,increase of [11C]MPC-6827 radioactivity in free tubulin fractions,[1],~ 43 (± 1) %
"COc1ccc(N(C)c2nc(C)nc3ccccc23)cc1 [MPC-6827, MPC-6827 hydrochloride]",lower [11C]MPC-6827 radioactive uptake in self-blocking assay,"SH-SY5Y cells; non-radioactive MPC-6827 1.0 µM 60 min before tracer, 30 min incubation",~ 70 (± 1) %
same,IC50,β-tubulin,1.5 nM
same,brain-to-plasma ratios,[3],14–30 times
same,lower radiotracer uptake on blocking compared to untreated tau KO samples,"[4]; non-radioactive MPC-6827 10 µM 1 h prior to radiotracer, whole brain, cortex, hippocampus, mid-brain regions of tau KO sections",63–70%
Cc1nc(N(C)c2ccc(O[11CH3])cc2)c2ccccc2n1 [[^11C]MPC-6827],increased radioactivity in destabilized/free tubulin fractions compared to bound fractions,[1]; tracer 30 min at RT,> 90 (± 4) %
same,"higher radioactivity in tau KO brains compared to age-matched controls, cortex","[4]; autoradiography in vitro, cortex",~ 38[± 2] %
same,"higher radioactivity in tau KO brains compared to age-matched controls, hippocampus","[4]; autoradiography in vitro, hippocampus",~ 33[± 3] %
same,"higher radioactivity in tau KO brains compared to age-matched controls, midbrain regions","[4]; autoradiography in vitro, midbrain regions",30[± 3] %
same,"higher radioactivity in tau KO brains compared to age-matched controls, whole brain","[4]; autoradiography in vitro, whole brain",~ 46[± 4] %
same,brain uptake,"[5]; WT controls, brain",1.03 ± 0.29 %ID/g
same,higher brain uptake in tau KO mice compared to WT controls,[5]; brain,~ 41%
same,uptake in cortical regions,"[5]; controls (WT), cortical regions",0.69 ± 0.07 %ID/g
same,uptake in cortical regions of tau KO brains higher than in controls,[5]; cortical regions,37%
same,brain uptake,"[5]; tau KO mice, brain",1.76 ± 0.31 %ID/g
same,uptake in cortical regions,"[5]; tau KO mice, cortical regions",1.11 ± 0.03 %ID/g
same,whole-brain SUVmax,"[6]; WT mice, 0-60 min microPET/CT, IV",1.74
same,time of peak brain radioactivity (TAC),[6]; both genotypes (tau KO and WT),around 4 min
same,whole-brain SUVmax,"[6]; tau KO mice, 0-60 min microPET/CT, IV",2.33
same,whole-brain SUVmax in tau KO higher than in WT controls,"[6]; tau KO vs WT mice, 0-60 min microPET/CT, IV",33 (± 2) %
COc1cc2cc(c1Cl)N(C)C(=O)C[C@H](OC(=O)[C@H](C)N(C)C(=O)CCS)[C@]1(C)O[C@H]1[C@H](C)[C@@H]1C[C@@](O)(NC(=O)O1)[C@H](OC)/C=C/C=C(\C)C2 [mertasine],increase of [11C]MPC-6827 radioactive uptake,SH-SY5Y cells; [7],63 (± 2) %
same,increase of [11C]MPC-6827 radioactivity in bound fractions,[1],~ 66 (± 2) %
same,increase of [11C]MPC-6827 radioactivity in free tubulin fractions,[1],~ 39 (± 3) %
